In patent publication EP3389689B1, “ACTIVE INGREDIENTS FOR TOPICAL APPLICATION” (priority 2015, dated 2021):

Legend:
[1] = tested on: genes involved in collagen fiber maturation; assay: Gene-expression analysis, summary statement in words; type: cell-based, human; conditions: result in words; fibroblasts, 0.01%, 24hrs
Protocol: (§1) Normal human dermal fibroblasts at passage 7 from a donor were cultured in DMEM with L-glutamine 2mM, Penicillin 50U/ml-Streptomycin 50ug/ml and 10% FCS in a 5% CO2 atmosphere at 37°C. After equilibration of cell in 1% FCS for 24hrs the respective peptides H-(beta-Ala)-Pro-Dab-NH-benzyl [CAS 823202-99-9], respectively N-palmitoyl-Gly-His-Lys [147732-56-7] / N-palmitoyl-Gly-Gln-Pro-Arg [221227-05-0] (2:1) diluted in growth medium to a concentration of 0.01% were added and the cells were incubated for an additional 24hrs. At the end of incubation cells were washed in PBS and immediately frozen at -80°C. Total RNA was extracted using NucleoSpin RNA Plus kit (Macherey-Nagel) according to supplier's instructions. cDNA was synthesized by reverse transcription of total RNA using Transcriptor Reverse Transcriptase (Roche). PCR was performed on a LightCycler device (Roche Molecular Systems Inc.) according to manufacturer's instructions. Raw data were analyzed using Microsoft Excel.

PCOLCE = assay: Gene-expression analysis (PCR) in normal human dermal fibroblasts; type: cell-based; conditions: peptide 0.01% in growth medium, timepoint 24hrs
Protocol: as §1

LOXL2 = assay: as above; type: cell-based; conditions: peptide 0.01% in growth medium, timepoint 24hrs
Protocol: as §1

PLOD3 = assay: as above; type: cell-based; conditions: peptide 0.01% in growth medium, timepoint 24hrs
Protocol: as §1

ADAMTS2 = assay: as above; type: cell-based; conditions: peptide 0.01% in growth medium, timepoint 24hrs
Protocol: as §1

N-palmitoyl-Gly-His-Lys [147732-56-7] / N-palmitoyl-Gly-Gln-Pro-Arg [221227-05-0] (2:1)
up-regulation of genes involved in collagen fiber maturation [1]: only up-regulates LOXL2 and much less PLOD3
gene expression PCOLCE (PCOLCE): 94%
gene expression LOXL2 (LOXL2): 292%
gene expression PLOD3 (PLOD3): 163%
gene expression ADAMTS2 (ADAMTS2): 105%
